From patent US8101766B2, “Crystalline form of a biphenyl compound” (Theravance, Inc., priority 2004, dated 2012) come the findings set out here.

Data set [1] can be described thus: Thermal analysis (DSC and TGA). The format is physicochemical. The following applies: DSC traces, samples of Example 6 and Example 2. Here is the method:
Differential scanning calorimetry (DSC) was performed using a TA Instruments Model Q-10 module with a Thermal Analyst controller. Data were collected and analyzed using TA Instruments Thermal Solutions software. A sample of about 1 mg was accurately weighed into an aluminum pan with lid. The sample was evaluated using a linear heating ramp of 5° C./min from ambient temperature to approximately 300° C. The DSC cell was purged with dry nitrogen during use. A representative DSC trace for a sample of a crystalline 1,2-ethanedisulfonic acid salt of biphenyl-2-ylcarbamic acid 1-[2-(2-chloro-4-{[(R)-2-hydroxy-2-(8-hydroxy-2-oxo-1,2-dihydroquinolin-5-yl)ethylamino]methyl}-5-methoxyphenylcarbamoyl)ethyl]piperidin-4-yl ester of Example 6 is shown in FIG. 1 and a representative DSC trace for a sample of Example 2 is shown in FIG. 2.
Thermogravimetric analysis (TGA) was performed using a TA Instruments Model Q-50 module equipped with high resolution capability. Data were collected and analyzed using TA Instruments Thermal Solutions software. A sample weighing about 10 mg was placed onto a platinum pan and scanned with a high resolution-heating rate from ambient temperature to 300° C. The balance and furnace chambers were purged with nitrogen flows during use. […]

Data set [2] is described as follows: Dynamic moisture sorption (DMS) assessment. The format is physicochemical. The following applies: for deliquescence: exposed to atmospheric moisture / DMS. Here is the method: Dynamic Moisture Sorption Assessment
A dynamic moisture sorption (DMS) assessment (also known as a moisture sorption-desorption profile) was performed for a hand ground sample of a crystalline 1,2-ethanedisulfonic acid salt of biphenyl-2-ylcarbamic acid 1-[2-(2-chloro-4-{[(R)-2-hydroxy-2-(8-hydroxy-2-oxo-1,2-dihydroquinolin-5-yl)ethylamino]methyl}-5-methoxyphenylcarbamoyl)ethyl]piperidin-4-yl ester of Preparation 18 using a VTI atmospheric microbalance, SGA-100 system (VTI Corp., Hialeah, Fla. 33016). A sample size of approximately 10 mg was used and the humidity was set at the ambient value at the start of the analysis. A typical DMS analysis consisted of three scans: ambient to 2% relative humidity (RH), 2% RH to 90% RH, 90% RH to 5% RH at a scan rate of 5% RH/step. The mass was measured every two minutes and the RH was changed to the next value (+/−5% RH) when the mass of the sample was stable to within 0.01% for 5 consecutive points.

Some results are limits rather than exact numbers.

“Biphenyl-2-ylcarbamic Acid 1-[2-(2-Chloro-4-{[(R)-2-hydroxy-2-(8-hydroxy-2-oxo-1,2-dihydroquinolin-5-yl)ethylamino]methyl}-5-methoxyphenylcarbamoyl)-ethyl]piperidin-4-yl Ester 1,2-Ethanedisulfonic Acid Salt”: the “thermal stability: temperature below which no thermal decomposition” value in data set [1] is at least 200 °C. Further, in data set [2] (DMS), the sorption/desorption profile entry is recorded as “reversible”. Moreover, the hygroscopicity in data set [2] (DMS trace, scans 2% RH to 90% RH, hand ground sample of Preparation 18) is below 9%. The deliquescence entry in data set [2] is “not deliquescent”; in data set [2] (listed as crystalline 1,2-ethanedisulfonic acid salts of the compound of formula I), “not to be deliquescent”. Moreover, in data set [2] (humidity range of 40% RH to 75% RH), the weight gain result is recorded as “less than 2.5%”.
